From paper PMC10521662 (Biodesign Research, 2022)

Molecular target: T1, β-PGM (β-phosphoglucomutase) (Pyrococcus horikoshii, UniProt O58510)
T1 construct: gene PH0749; recombinant, plasmid pET20b-βpgm, E. coli BL21(DE3), purified
T1 sequence (O58510 1-230): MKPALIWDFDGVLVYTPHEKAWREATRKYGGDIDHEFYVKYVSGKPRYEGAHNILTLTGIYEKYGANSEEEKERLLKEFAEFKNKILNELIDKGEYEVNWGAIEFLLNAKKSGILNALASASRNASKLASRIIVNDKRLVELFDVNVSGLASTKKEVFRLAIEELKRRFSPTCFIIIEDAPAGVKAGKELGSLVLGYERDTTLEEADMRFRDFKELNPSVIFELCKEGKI
Assay: G6P formation, G6PDH NADH assay at […] nm
Assay type: biochemical
Conditions: 10 mM β-G1P; 10 mM MgCl2; pH 7.0; 37 °C

## O=P(O)(O)O[C@@H]1O[C@H](CO)[C@@H](O)[C@H](O)[C@H]1O [β-G1P]
  G6P formation, G6PDH NADH assay at 340 nm: β-PGM was able to utilize β-G1P but showed no activity for α-G1P
